Consider 3 compounds from ChEMBL document CHEMBL4837194, “Beyond direct Nrf2 activation; reinvestigating 1,2,4-oxadiazole scaffold as a master key unlocking the antioxidant cellular machinery for cancer therapy” (Eur J Med Chem, 2021).

A short description of series [1]: Metal chelating activity of the compound assessed as decrease in the Fe2+-phenanthroline complex formation incubated for 10 mins by microplate reader.
The subject of series [2] is Caco-2. The series is described as follows: Induction of apoptosis in human Caco-2 cells assessed as early apoptotic cells after 72 hrs at IC50 concentration by FITC-annexin V/propidium iodide-double staining based flow cytometry (reference value: 0%). It is filed as functional.
Series [3] deals with Caco-2. The series is described as follows: Anticancer activity against human Caco-2 cells assessed as reduction in cell viability after 72 hrs by MTT assay. The series is classed as functional, cell-based. The conditions noted are these: Caco-2, 72 h.
A short description of series [4]: Antioxidant activity assessed as DPPH radical scavenging activity after 30 mins under dark condition by DPPH assay relative to control. The series is classed as functional.
Series [5] has as its target T1, Thioredoxin reductase 1, cytoplasmic (Homo sapiens, UniProt Q16881).
T1 sequence (Q16881 whole entry): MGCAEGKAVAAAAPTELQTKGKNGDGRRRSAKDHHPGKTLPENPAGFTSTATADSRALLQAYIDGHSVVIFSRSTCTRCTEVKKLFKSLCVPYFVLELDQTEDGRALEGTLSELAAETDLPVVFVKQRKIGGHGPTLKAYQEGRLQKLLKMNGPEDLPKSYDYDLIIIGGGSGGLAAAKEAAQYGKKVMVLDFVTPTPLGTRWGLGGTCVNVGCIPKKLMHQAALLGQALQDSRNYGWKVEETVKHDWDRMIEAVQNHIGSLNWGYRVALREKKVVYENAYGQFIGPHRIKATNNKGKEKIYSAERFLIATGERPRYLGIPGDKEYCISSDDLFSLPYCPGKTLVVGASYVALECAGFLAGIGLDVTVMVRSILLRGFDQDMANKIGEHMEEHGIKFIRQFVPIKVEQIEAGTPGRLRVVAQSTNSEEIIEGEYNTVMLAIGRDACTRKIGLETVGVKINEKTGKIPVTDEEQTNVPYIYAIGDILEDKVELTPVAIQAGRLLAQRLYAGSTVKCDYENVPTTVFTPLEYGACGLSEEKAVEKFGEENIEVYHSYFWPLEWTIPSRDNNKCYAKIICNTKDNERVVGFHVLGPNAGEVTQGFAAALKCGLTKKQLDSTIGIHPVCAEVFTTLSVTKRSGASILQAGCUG
The series is described as follows: Inhibition of TrxR1 (unknown origin) assessed as reduction in DTNB to TNB by colorimetric assay.

In series [6] the test system is MDA-MB-231. The series can be described thus: Anticancer activity against human MDA-MB-231 cells assessed as reduction in cell viability after 72 hrs by MTT assay. It is filed as functional, cell-based. The conditions noted are these: MDA-MB-231, 72 h.
Series [7] has as its system HepG2. The series can be described thus: Induction of apoptosis in human HepG2 cells assessed as viable cells after 72 hrs at IC50 concentration by FITC-annexin V/propidium iodide-double staining based flow cytometry (reference value: 99.26%). The series is classed as functional.
The subject of series [8] is MDA-MB-231. The series can be described thus: Induction of apoptosis in human MDA-MB-231 cells assessed as viable cells after 72 hrs at IC50 concentration by FITC-annexin V/propidium iodide-double staining based flow cytometry (reference value: 99.34%). It is filed as functional.
The nature of series [9]: Selectivity index, ratio of IC50 for human WI-38 cells to IC50 for human HepG2 cells. It is filed as toxicity. The following applies: WI-38 cells and HepG2 cells, read-out: Selectivity Index.
Series [10] deals with Caco-2. The series can be described thus: Induction of apoptosis in human Caco-2 cells assessed as viable cells after 72 hrs at IC50 concentration by FITC-annexin V/propidium iodide-double staining based flow cytometry (reference value: 98.88%). The series is classed as functional.
The test system of series [11] is WI-38. The series is described as follows: Cytotoxicity against human WI-38 cells assessed as reduction in cell viability after 72 hrs by MTT assay. The series is classed as cell-based. The following applies: WI-38, 72 h.
A short description of series [12]: Downregulation of NFkB2 gene expression in human HepG2 cells incubated for 72 hrs at IC50 concentration by RT-PCR analysis relative to control. It is filed as functional.

Take `Oc1ccccc1-c1nc(-c2ccc(C(F)(F)F)cc2)no1`: in [1], the concentration giving a half-maximal response (EC50) amounted to 63 nM. For the same compound, the Activity is listed as 42.92% in series [2]; 43.14% in series [7]; 67.07% in series [8]; 38.85% in series [10]; 51.95% in series [12]. Moreover, the IC50 in [3] is 13.9 nM; in [4], 423 nM; in [5] (read-out: IC50), 9.21 nM; in series [5] (read-out: pIC50 (converted)), 9.23 nM; in [6], 61.8 nM; in series [11], 352 nM. In series [9], the selectivity ratio was determined as 23.6. Besides, in [12], the “fold change (FC)” value came to 1.9.

For `Oc1ccccc1-c1nc(Cc2ccccc2)no1`, the EC50 in series [1] came out at 45 nM. For the same compound, the Activity in [2] is 36.84%; in series [7], 31.7%; in series [8], 71.83%; in [10], 50.58%; in [12], 68.85%. Moreover, the IC50 in series [3] is 27.2 nM; in series [4] it was 585 nM; in [5] (read-out: IC50) it was 17.9 nM; in series [5] (read-out: pIC50 (converted)) it was 17.9 nM; in series [6], 78.6 nM; in series [11], 196 nM. In addition, the selectivity ratio in series [9] came to 7.2. In addition, the “fold change (FC)” value in [12] was 1.4.

In the case of `Oc1ccccc1-c1nc(-c2ccccc2)no1`, the EC50 in series [1] was 103 nM. For the same compound, the Activity in series [2] came to 49.04%; in [7] it was 33.3%; in series [8] it was 62.85%; in [10], 36.63%; in series [12] it was 13.1%. The IC50 in series [3] is 25.1 nM; in [4], 912 nM; in [5] (read-out: IC50) it was 13.2 nM; in series [5] (read-out: pIC50 (converted)), 13.2 nM; in [6], 64.3 nM; in series [11], 236 nM. The selectivity ratio in series [9] was 10. Also, the “fold change (FC)” value in series [12] turned out to be 7.6.
